Experimental findings from publication PMC5344255, “Design, Synthesis and Biochemical Evaluation of Novel Selective Estrogen Receptor Ligand Conjugates Incorporating an Endoxifen-Combretastatin Hybrid Scaffold” (Biomedicines, 2016) are described below.

Molecules are shown by their SMILES. pIC50: −log10 of the molar value.

Data set [1] has as its system MCF-7 human breast cancer cells. Nature of the data set: MTT assay for antiproliferative effects in MCF-7. Format: cell-based. Particulars: Homo sapiens, MCF7, MCF-7, MTT assay; for pIC50: mean of at least three experiments in triplicate; for IC50: values in nM. The procedure:
(§1) The human breast carcinoma cell line, MCF-7, was purchased from the European Collection of Animal Cell Cultures (ECACC). The cells were maintained in MCF-7 complete medium; consisting of Eagle’s Minimum Essential Medium (MEM) supplemented with 10% (v/v) Foetal Bovine Serum (FBS), 2 mM L-glutamine, 100 μg/mL penicillin/streptomycin and 1% (v/v) non-essential amino acids. Cell cultures were maintained at 37 °C under a humidified atmosphere of 5% CO2/95% O2. The human breast carcinoma cell line, MDA, was purchased from the European Collection of Animal Cell Cultures (ECACC). The cells were maintained in MDA complete medium; consisting of Dulbecco’s Modified Eagle’s Medium (D-MEM) supplemented with 10% (v/v) Foetal Bovine Serum (FBS), 2 mM L-glutamine, 100 μg/mL penicillin/streptomycin. Cell cultures were maintained at 37 °C under a humidified atmosphere of 5% CO2/95% O2. The MTT assay was performed according to the reported protocol. The tetrazolium salt, 3-(4,5-dimethylthiazol-2-yl)-2,5-diphenyltetrazolium bromide (MTT) is taken up only by metabolically active cells and cleaved to form a formazan dye by mitochondrial dehydrogenases. Assays where repeated in three experiments performed in triplicate (unless otherwise stated) and reported results represent the mean value ± standard error mean. Graphs of percentage cell viability versus concentration of the subject compound were processed using PRISM [31].
(Tetrazolium assays rely on reduction of a dye to a coloured formazan, in cell work by metabolically active cells.)

Data set [2] has as its system MDA-MB-231 human breast cancer cells. Nature of the data set: MTT assay for antiproliferative effects in MDA-MB-231. It counts as cell-based. As to conditions: MDA-MB-231, MTT assay. The procedure: as §1, with “Cell cultures were maintained at 37 °C under a humidified atmosphere of 5% CO2/95% O2.” left out, “Assays where repeated in three experiments performed in triplicate (unless otherwise stated) and reported results represent the mean value ± standard error mean.” left out

For data set [3] the test system is unchanged. The data set can be described thus: Lactate dehydrogenase (LDH) cytotoxicity assay in MDA-MB-231. It counts as cell-based. Particulars: % cell lysis at 10 μM. As to the method:
(§2) In this assay, the release of cytoplasmic lactate dehydrogenase (LDH) is used as a measure of cell lysis. MCF-7 and MDA-MB-231 cells were seeded at a density of 1 × 10^4 cells/well in a 96-well plate and incubated for 24 h. The cells were then dosed with 2 μL volumes of the test compounds, over the concentration range 1 nM–50 μM. Cytotoxicity was determined using the CytoTox 96 nonradioactive cytotoxicity assay (Promega, Madison, WI, USA) following the manufacturer’s protocol.

Data set [4] deals with MCF-7 human breast cancer cells. The data set can be described thus: Lactate dehydrogenase (LDH) cytotoxicity assay in MCF-7. Format: cell-based. As to conditions: % cell lysis at 10 µM. The procedure: as §2
The nature of data set [5]: HPLC stability study in phosphate buffer. It counts as physicochemical. Particulars: pH values in the range 4–9. As to the method:
Analytical high-performance liquid chromatography (HPLC) stability studies were performed using a Symmetry® column (C18, 5 µm, 4.6 × 150 mm), a Waters 2487 Dual Wavelength Absorbance detector, a Waters 1525 binary HPLC pump and a Waters 717 plus Autosampler (Waters Corporation, Milford, MA, USA). Samples were detected at wavelength of 254 nm. All samples were analysed using acetonitrile (80%):water (20%) as the mobile phase over 10 min and a flow rate of 1 mL/min. Stock solutions are prepared by dissolving 5mg of compound in 10 mL of mobile phase. Phosphate buffers at the desired pH values (4, 7.4, and 9) were prepared in accordance with the British Pharmacopoeia monograph 2015. 30 µL of stock solution was diluted with 1 mL of appropriate buffer, shaken and injected immediately. Samples were withdrawn and analysed at time intervals of t = 0 min, 5 min, 30 min, 60 min, 90 min, 120 min, 24 h and 48 h.

The target in the next data set is T1, human ERβ (Homo sapiens, UniProt Q92731).
T1 construct: purchased Invitrogen; host or cells: baculovirus expression system
T1 sequence (Q92731 whole entry): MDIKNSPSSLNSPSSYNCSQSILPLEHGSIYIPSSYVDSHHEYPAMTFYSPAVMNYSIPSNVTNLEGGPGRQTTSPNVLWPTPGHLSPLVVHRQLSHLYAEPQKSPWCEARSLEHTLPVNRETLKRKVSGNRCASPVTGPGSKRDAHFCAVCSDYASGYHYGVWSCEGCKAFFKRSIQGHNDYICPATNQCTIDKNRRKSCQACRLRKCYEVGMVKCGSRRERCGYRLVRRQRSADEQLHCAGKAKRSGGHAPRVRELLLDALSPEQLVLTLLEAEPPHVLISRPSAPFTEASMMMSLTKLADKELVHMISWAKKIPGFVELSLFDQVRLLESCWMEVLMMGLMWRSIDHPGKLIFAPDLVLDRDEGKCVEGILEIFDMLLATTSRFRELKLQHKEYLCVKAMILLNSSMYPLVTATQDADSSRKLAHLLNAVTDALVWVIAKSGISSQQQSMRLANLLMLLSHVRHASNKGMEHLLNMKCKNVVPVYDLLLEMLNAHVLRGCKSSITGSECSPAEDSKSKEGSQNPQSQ
Nature of the data set: Estrogen receptor fluorescence polarisation competitive binding assay, ERβ. Particulars: fluoromone ligand. For orientation: Fluorescence polarisation rises when a labelled molecule tumbles more slowly, as on binding a larger partner.

In another data set the target is T2, human ERα (Homo sapiens, UniProt P03372).
T2 construct: purchased Invitrogen; host or cells: baculovirus expression system
T2 sequence (P03372 1-595): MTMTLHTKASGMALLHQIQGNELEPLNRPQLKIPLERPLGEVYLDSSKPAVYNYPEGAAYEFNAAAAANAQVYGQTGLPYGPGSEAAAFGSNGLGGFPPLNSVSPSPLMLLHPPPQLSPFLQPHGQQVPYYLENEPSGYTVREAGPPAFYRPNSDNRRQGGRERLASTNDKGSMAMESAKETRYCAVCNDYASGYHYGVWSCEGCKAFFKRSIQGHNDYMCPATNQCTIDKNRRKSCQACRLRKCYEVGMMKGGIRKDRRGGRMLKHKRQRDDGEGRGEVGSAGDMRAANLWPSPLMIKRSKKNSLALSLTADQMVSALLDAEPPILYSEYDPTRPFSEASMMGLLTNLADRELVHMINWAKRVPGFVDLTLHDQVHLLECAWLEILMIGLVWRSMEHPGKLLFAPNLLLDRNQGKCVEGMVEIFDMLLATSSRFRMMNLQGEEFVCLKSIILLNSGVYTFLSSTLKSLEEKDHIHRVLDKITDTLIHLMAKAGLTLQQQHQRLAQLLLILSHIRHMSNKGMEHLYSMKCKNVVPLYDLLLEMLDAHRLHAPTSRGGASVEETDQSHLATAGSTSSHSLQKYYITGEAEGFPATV
Nature of the data set: Estrogen receptor fluorescence polarisation competitive binding assay, ERα. Particulars: for pIC50: competitive binding, fluoromone ligand; for Selectivity (α/β): ratio of ER binding IC50 values.

The term pIC50 denotes the IC50 on a negative log10 scale, so that one unit is a factor of ten. Read a high pIC50 as a low IC50. The IC50 is the midpoint of a concentration-inhibition curve. A low value points to higher potency. By half-life is commonly meant how long it takes for the measured level to halve. Read a low half-life as rapid decline. Turning to `CCC(=C(c1ccc(O)cc1)c1ccc(OCCN(C)C(=O)/C(=C/c2ccc(OC)c(O)c2)c2cc(OC)c(OC)c(OC)c2)cc1)c1ccccc1` (mixture of isomers) [Compound 27, (E)-3-(3-Hydroxy-4-methoxyphenyl)-N-(2-{4-[(E/Z)-1-(4-hydroxyphenyl)-2-phenylbut-1-enyl]phenoxy}ethyl)-N-methyl-2-(3,4,5-trimethoxyphenyl) acrylamide], the pIC50 in data set [1] is 7.48; in data set [2] it was 5.57. Besides, the half-inhibitory concentration (IC50) in data set [1] came to 0.033 nM. Besides, the “% Cell Death at 10 μM” value in data set [3] is reported as 17%; in data set [4], 10%. This compound also displayed a half-life at 14.6 µg/mL in data set [5] of over 24 h.

Take `CCC(=C(c1ccc(O)cc1)c1ccc(OCCN(C)C(=O)/C(=C/c2cc(OC)c(OC)c(OC)c2)c2ccc(OC)cc2)cc1)c1ccccc1` (mixture of isomers) [Compound 31, (E)-N-(2-{4-[(E/Z)-1-(4-Hydroxyphenyl)-2-phenylbut-1-enyl]phenoxy}ethyl)-2-(4-methoxyphenyl)-N-methyl-3-(3,4,5-trimethoxyphenyl) acrylamide]: the pIC50 was 5.68 in data set [1] and 4.29 in data set [2]. Further, the “% Cell Death at 10 μM” value in data set [3] is 0%; in data set [4], 1%. In addition, the half-life at 14.6 µg/mL in data set [5] was over 24 h.

`CCC(=C(c1ccc(O)cc1)c1ccc(OCCN(C)C(=O)/C(=C/c2cc(OC)c(OC)c(OC)c2)c2ccc(OC)cc2)cc1)c1ccc(O)cc1` (mixture of isomers) [Compound 32, (E)-N-(2-{4-[(E/Z)-1,2-Bis-(4-hydroxyphenyl)but-1-enyl]phenoxy}ethyl)-2-(4-methoxyphenyl)-N-methyl-3-(3,4,5-trimethoxyphenyl)acrylamide]: the pIC50 in data set [1] was 7.39; in data set [2], 5.39. Besides, the “% Cell Death at 10 μM” value is 0% in data set [3] and 16% in data set [4]. Also, the half-life at 14.6 µg/mL in data set [5] is over 24 h.

At human ERβ, `CCC(=C(c1ccc(O)cc1)c1ccc(OCCNC)cc1)c1ccccc1` [Compound 11, 4-{1-[4-(2-Methylaminoethoxy)phenyl]-2-phenylbut-1-enyl}phenol, reference compound] gave a pIC50 of 6.93. In addition, in data set [1], the negative logarithm of the IC50 (pIC50) was 7.54 and half-maximal inhibition (IC50) was put at 0.029 nM. For the same compound, the “% Cell Death at 10 μM” value in data set [4] amounted to 23%. Moreover, at human ERα, the negative logarithm of the IC50 (pIC50) is 7.33 and the “Selectivity (α/β)” value came out at 2.52.

As to `CCC(=C(c1ccc(O)cc1)c1ccc(OCCNC)cc1)c1ccc(O)cc1` [Compound 12, 4-(1-(4-(2-(Methylamino)ethoxy)phenyl)-2-(4-hydroxyphenyl)but-1-enyl)phenol], the negative-log IC50 (pIC50) on human ERβ was 7.40; in data set [1], 7.55; at human ERα it was 7.36. Moreover, the “% Cell Death at 10 μM” value in data set [4] is 11%. Also, the “Selectivity (α/β)” value at human ERα came out at 0.90.
